{
  "source": "patent US20040224076A1",
  "about": "“Dietetic composition in the form of a salt substitute for table salt” (priority 1998, published 2004)",
  "origin": "cited, not measured here",
  "conditions": "oral supplementation, meta-analysis of 33 studies",
  "data": [
    {"smiles": "[K+]", "note": "[potassium]", "values": [
      {"measurement": "reduction for diastolic pressure", "result": 1.97, "unit": "mm Hg"},
      {"measurement": "reduction for systolic pressure", "result": 3.11, "unit": "mm Hg"}
    ]}
  ]
}
